Measurements: patent publication US9034848B2, “Phenyl carbamate compounds for use in preventing or treating stroke” (Bio-Pharm Solutions Co., Ltd., priority 2011, dated 2015)

What was measured:
Assay type in all cases: in vivo
[1] = test system: mice; test: MES test (anti-excitotoxicity activity); conditions: Mus musculus, po, 4 mice, read-out: MES test(po) Protection %; for responders at 100 mg/kg: injection amount 100 mg/kg
[2] = test system: SD rats; test: Permanent middle cerebral artery occlusion (pMCAO) model, TTC-stained infarct area; conditions: 60 mg/kg i.p. b.i.d.; for infraction areas compared with control (neuro-therapeutic): 1st inj. 0.25 hr after occlusion, 8 hr interval, occlusion 1, 3, 7 days
[3] = test system: SD rats; test: Transient middle cerebral artery occlusion (tMCAO) model, TTC-stained infarct area; conditions: 2 hr occlusion, 24 hr reperfusion; for infraction areas compared with control (neuro-therapeutic): 60 mg/kg i.p. 15 minutes after occlusion; for infraction areas compared with control (neuro-prevention): 60 mg/kg i.p. 15 minutes before occlusion
Experimental: 1.1. Neuro-Prevention Study of Transient MCAO (tMCAO) Model
Male, SD rats weighing 290-300 g were purchased from Nara Bio Tech. (Pyoung-tek, Korea) Animals were maintained with laboratory animal food and water ad libitum in an animal facility with a 12 h light/dark cycle at a controlled temperature (23±2° C.) until used. All animal experiments were carried out in accordance with the Korean Academy of Medical Sciences Guide for Care and Use of Laboratory Animals.
The rats were anesthetized with isoflurane (Hana-phram., Korea) and anesthesia machine was set to 1.0 L/min N2O (Surgi-Vet, USA). Isoflurane and N2O gas ratio was 3:3 for induction anesthesia, and lower to 2:1 (isoflurane:N2O) to maintain anesthesia. Body temperature was monitored continuously by a rectal thermo meter probe and maintained at 37±0.5° C. by placing the animals on a heating pad (Jung-do B&P, Korea). The MCA (middle cerebral artery) occlusion was induced by the procedure of Longa et al. (1989) with minor modifications. Briefly, surgical nylon suture thread (4-0, Diameter: 0.39 mm, Coating length: 0.56 mm, Doccol suture, USA) with a round tip was advanced from the external carotid artery (ECA) into the lumen of the internal carotid artery (ICA) to occlude the origin of the MCA. The wound was closed, and the animals were allowed to home cage for recover.
Priority, the infraction areas when the compound of Example 1 was treated at various time points were measured for peak time when is the best efficacy time (see FIG. 1). And then, rats received 60 mg/kg dose of each compound of Examples 1, 65 and 67, intraperitoneally (i.p.) at 15 minutes before MCA occlusion (see FIG. 2, animal numbers of each compound of Examples 1 (n=8), 65 (n=5) and 67 (n=6)). All compounds were dissolved in 30% polyethylene glycol (Compound of Example 1) or 20% (w/v) Tween 80 (Compounds of Examples 65 and 67) once in volume of 4 ul/g bw. Control group (n=33) was identical to those in the MCA occlusion rats except for injection of vehicle (4 ul/g bw of 30% (w/v) polyethylene glycol or 20% (w/v) Tween 80, intraperitoneally (i.p.)). Two hours after MCA occlusion, reperfusion was accomplished by pulling the suture thread back to the bifurcation until the tip cleared the ICA.
The experimentation was identical performed as described in Experimental Example 1.1, except that each compound examples of 1, 65 and 67 was administered at 15 minutes after MCA occlusion (FIG. 3, animal numbers of each compound of Examples 1 (n=7), 65 (n=6) and 67 (n=5)), to test the therapeutic effect of the compounds. Control group (n=33) was identical to those in the MCA occlusion rats except for injection of vehicle (4 ul/g bw of 30% polyethylene glycol or 20% Tween 80, intraperitoneally (i.p.)).
After 24 hours of reperfusion, rats were anesthetized with isoflurane (Hana-phram., Korea). The brain was then quickly removed and cut into 2-mm thick coronal block slices in brain matrix. The slices were immersed in a 2% (w/v) solution of 2,3,5-triphenyltetrazolium chloride (TTC) in normal saline at 37° C. for 10 min and then fixed in 10% (v/v) formalin solution at room temperature for overnight. The TTC stained brain slices were photographed using a digital camera (5000D, Nikon, Japan). The size of infarct was calculated with an image analysis system (Image-Pro Plus 4.0, Media Cybernetics, USA) and measurement of infarct area were expressed as the percentage (% control) of infarct area in reference to the compared with ipsilateral hemisphere of control group (see FIGS. 2 and 3).
Statistical analysis results are presented as the mean±S.E.M. and measures analysis of variance was used for comparison of the results of hemispheric infarct area, obtained from 5˜33 rats in each group. Data were analyzed by either one-way analysis of variance (ANOVA) followed by Tukey's test for multiple comparisons. p values less than 0.05 were considered to be statistically significant (see FIGS. 1 and 4).

| SMILES | responders at 100 mg/kg [1] [%] | infraction areas compared with control (neuro-therapeutic) [2] | infraction areas compared with control (neuro-therapeutic) [3] | infraction areas compared with control (neuro-prevention) [3] | other results |
| --- | --- | --- | --- | --- | --- |
| CCCC[C@@H](OC(N)=O)[C@H](O)c1ccccc1Cl [Compound 13, 1-(2-chlorophenyl)-(R)-1-hydroxyhexyl-(R)-2-carbamate] | – | – | – | – | responders at 200 mg/kg ([1]; injection amount 200 mg/kg): 75% |
| CCCC[C@H](OC(N)=O)[C@@H](O)c1ccc(Cl)cc1Cl [Compound 43, 1-(2,4-dichlorophenyl)-(S)-1-hydroxyhexyl-(S)-2-carbamate] | 25 | – | – | – | – |
| CCCC[C@H](OC(N)=O)[C@@H](O)c1c(Cl)cccc1Cl [Compound 44, 1-(2,6-dichlorophenyl)-(S)-1-hydroxyhexyl-(S)-2-carbamate] | 75 | – | – | – | – |
| CC[C@H](OC(N)=O)[C@@H](O)c1ccccc1I [Compound 67, 1-(2-iodophenyl)-(S)-1-hydroxybutyl-(S)-2-carbamate] | 100 | neuro-therapeutic effects | significantly reduced | significantly reduced | – |
| C[C@H](OC(N)=O)[C@@H](O)c1ccccc1Cl [Compound 1, 1-(2-chlorophenyl)-(S)-1-hydroxypropyl-(S)-2-carbamate] | – | significantly reduced | significantly reduced | significantly reduced | neuro-therapeutic effect, TTC-stained infarction area ([2]; 1st inj. 1 hr after occlusion, occlusion for 3 days): neuro-therapeutic effect |
| C[C@H](OC(N)=O)[C@@H](O)c1ccccc1I [Compound 65, 1-(2-iodophenyl)-(S)-1-hydroxypropyl-(S)-2-carbamate] | – | neuro-therapeutic effects | significantly reduced | significantly reduced | responders at 50 mg/kg ([1]; injection amount 50 mg/kg): 100% |
| CCCC[C@H](OC(N)=O)[C@@H](O)c1ccccc1Cl [Compound 12, 1-(2-chlorophenyl)-(S)-1-hydroxyhexyl-(S)-2-carbamate] | 75 | – | – | – | – |
